test system: PKC mediated IL-2 production; test: IL-2 ELISA, human primary T cell, anti CD3+CD28+; type: cell-based; conditions: Homo sapiens, T-cell, 24 h, human primary T cells stimulated with αCD3 and αCD28, 24 hours
Procedure, shortened: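 Human peripheral blood T cells, pre-expanded with αCD3/αCD28 and IL-2 and then washed free of IL-2, were pre-incubated with compound for 1 h at 37° C. They were then stimulated on plates coated with […] αCD3 and 5 μg/ml αCD28, or with 0.5 ng/ml PMA plus 0.1 uM ionomycin in the counter assay. IL-2 in supernatants was measured by ELISA after 24 h.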

| EC50 | SMILES |
| --- | --- |
| 1000 to 10000 nM | CC1(C)C[C@H](Nc2nc(Nc3ccc(OCC(O)CO)c(C#N)c3)ncc2F)C[C@@H]2CCCN21 (stereo partly drawn) [Compound 212, 2-(2,3-dihydroxypropoxy)-5-((4-(((7R,8aS)-5,5-dimethyloctahydroindolizin-7-yl)amino)-5-fluoropyrimidin-2-yl)amino)benzonitrile] |
| 100 to 500 nM | CC1(C)C[C@H](Nc2nc(Nc3ccc(OCCCO)c(C#N)c3)ncc2F)C[C@@H]2CCCN21 [Compound 213, 5-((4-(((7R,8aS)-5,5-dimethyloctahydroindolizin-7-yl)amino)-5-fluoropyrimidin-2-yl)amino)-2-(3-hydroxypropoxy)benzonitrile] |
| 100 to 500 nM | CC1(C)C[C@H](Nc2nc(Nc3ccc(OCC(O)CO)c(-n4cnnn4)c3)ncc2F)C[C@@H]2CCCN21 (stereo partly drawn) [Compound 214, 3-(4-((4-(((7R,8aS)-5,5-dimethyloctahydroindolizin-7-yl)amino)-5-fluoropyrimidin-2-yl)amino)-2-(1H-tetrazol-1-yl)phenoxy)propane-1,2-diol] |
| < 100 nM | CC1(C)C[C@H](Nc2nc(Nc3ccc(OCCCO)c(-n4cnnn4)c3)ncc2F)C[C@@H]2CCCN21 [Compound 215, 3-(4-((4-(((7R,8aS)-5,5-dimethyloctahydroindolizin-7-yl)amino)-5-fluoropyrimidin-2-yl)amino)-2-(1H-tetrazol-1-yl)phenoxy)propan-1-ol] |
| > 10000 nM | COc1cc(Nc2ncc(F)c(N[C@@H]3C[C@@H]4CCCN4C(C)(C)C3)n2)ccc1OCCO [Compound 216, 2-(4-((4-(((7R,8aS)-5,5-dimethyloctahydroindolizin-7-yl)amino)-5-fluoropyrimidin-2-yl)amino)-2-methoxyphenoxy)ethan-1-ol] |
| > 10000 nM | [2H]C([2H])(O)C([2H])([2H])Oc1ccc(Nc2ncc(F)c(N[C@@H]3C[C@@H]4CCCN4C(C)(C)C3)n2)cc1OC [Compound 217, 2-(4-((4-(((7R,8aS)-5,5-dimethyloctahydroindolizin-7-yl)amino)-5-fluoropyrimidin-2-yl)amino)-2-methoxyphenoxy)ethan-1,1,2,2-d4-1-ol] |
| 100 to 500 nM | C[C@H](CO)COc1cc(F)c(Nc2ncc(F)c(N[C@@H]3C[C@@H]4CCCN4C(C)(C)C3)n2)cc1-n1nnn(C)c1=O [Compound 222, 1-(5-((4-(((7R,8aS)-5,5-dimethyloctahydroindolizin-7-yl)amino)-5-fluoropyrimidin-2-yl)amino)-4-fluoro-2-((R)-3-hydroxy-2-methylpropoxy)phenyl)-4-methyl-1,4-dihydro-5H-tetrazol-5-one] |
| < 100 nM | CC1(C)C[C@H](Nc2nc(Nc3ccc(OCCO)c(-n4cnnn4)c3)ncc2Cl)C[C@@H]2CCCN21 [Compound 223, 2-(4-((5-chloro-4-(((7R,8aS)-5,5-dimethyloctahydroindolizin-7-yl)amino)pyrimidin-2-yl)amino)-2-(1H-tetrazol-1-yl)phenoxy)ethan-1-ol] |
| 100 to 500 nM | Cn1nnn(-c2cc(Nc3ncc(F)c(N[C@@H]4C[C@@H]5CCCN5C(C)(C)C4)n3)c(F)cc2OCCNC(=O)OC(C)(C)C)c1=O [Compound 226, tert-butyl (2-(4-((4-(((7R,8aS)-5,5-dimethyloctahydroindolizin-7-yl)amino)-5-fluoropyrimidin-2-yl)amino)-5-fluoro-2-(4-methyl-5-oxo-4,5-dihydro-1H-tetrazol-1-yl)phenoxy)ethyl)carbamate] |
| 1000 to 10000 nM | CC(O)COc1ccc(Nc2ncc(Cl)c(N[C@@H]3C[C@@H]4CCCN4C(C)(C)C3)n2)cc1C#N (stereo partly drawn) [Compound 229, 5-((5-chloro-4-(((7R,8aS)-5,5-dimethyloctahydroindolizin-7-yl)amino)pyrimidin-2-yl)amino)-2-(2-hydroxypropoxy)benzonitrile] |
| 100 to 500 nM | Cn1nnn(-c2cc(Nc3ncc(F)c(N[C@@H]4C[C@@H]5CCCN5C(C)(C)C4)n3)c(F)cc2OCC(O)C(F)(F)F)c1=O (stereo partly drawn) [Compound 230, 1-(5-((4-(((7R,8aS)-5,5-dimethyloctahydroindolizin-7-yl)amino)-5-fluoropyrimidin-2-yl)amino)-4-fluoro-2-(3,3,3-trifluoro-2-hydroxypropoxy)phenyl)-4-methyl-1,4-dihydro-5H-tetrazol-5-one] |
| 500 to 1000 nM | Cn1nnn(-c2cc(Nc3ncc(Cl)c(N[C@@H]4C[C@@H]5CCCN5C(C)(C)C4)n3)c(F)cc2O)c1=O [Compound 232, 1-(5-((5-chloro-4-(((7R,8aS)-5,5-dimethyloctahydroindolizin-7-yl)amino)pyrimidin-2-yl)amino)-4-fluoro-2-hydroxyphenyl)-4-methyl-1,4-dihydro-5H-tetrazol-5-one] |

More lines, now with the values behind:

| SMILES | EC50 |
| --- | --- |
| CC1(C)C[C@H](Nc2nc(Nc3ccc(OCC4(CO)COC4)c(-n4cnnn4)c3)ncc2F)C[C@@H]2CCCN21 [Compound 204, (3-((4-((4-(((7R,8aS)-5,5-dimethyloctahydroindolizin-7-yl)amino)-5-fluoropyrimidin-2-yl)amino)-2-(1H-tetrazol-1-yl)phenoxy)methyl)oxetan-3-yl)methanol] | 500 to 1000 nM |
| CC1(C)C[C@H](Nc2nc(Nc3ccc(OCCO)c(-n4cnnn4)c3)ncc2F)C[C@@H]2CCCN21 [Compound 205, 2-(4-((4-(((7R,8aS)-5,5-dimethyloctahydroindolizin-7-yl)amino)-5-fluoropyrimidin-2-yl)amino)-2-(1H-tetrazol-1-yl)phenoxy)ethan-1-ol] | < 100 nM |
| CC(O)COc1ccc(Nc2ncc(F)c(N[C@@H]3C[C@@H]4CCCN4C(C)(C)C3)n2)cc1-n1cnnn1 (stereo partly drawn) [Compound 206, 1-(4-((4-(((7R,8aS)-5,5-dimethyloctahydroindolizin-7-yl)amino)-5-fluoropyrimidin-2-yl)amino)-2-(1H-tetrazol-1-yl)phenoxy)propan-2-ol] | < 100 nM |
| COCCOCCOc1ccc(Nc2ncc(F)c(N[C@@H]3C[C@@H]4CCCN4C(C)(C)C3)n2)cc1-n1cnnn1 [Compound 207, N4-((7R,8aS)-5,5-dimethyloctahydroindolizin-7-yl)-5-fluoro-N2-(4-(2-(2-methoxyethoxy)ethoxy)-3-(1H-tetrazol-1-yl)phenyl)pyrimidine-2,4-diamine] | < 100 nM |
| COc1cc(Nc2ncc(F)c(N[C@@H]3C[C@@H]4CCCN4C(C)(C)C3)n2)ccc1O [Compound 208, 4-((4-(((7R,8aS)-5,5-dimethyloctahydroindolizin-7-yl)amino)-5-fluoropyrimidin-2-yl)amino)-2-methoxyphenol] | 1000 to 10000 nM |
| CC1(C)C[C@H](Nc2nc(Nc3ccc(OCC(O)(C(F)(F)F)C(F)(F)F)c(C#N)c3)ncc2F)C[C@@H]2CCCN21 [Compound 209, 5-((4-(((7R,8aS)-5,5-dimethyloctahydroindolizin-7-yl)amino)-5-fluoropyrimidin-2-yl)amino)-2-(3,3,3-trifluoro-2-hydroxy-2-(trifluoromethyl)propoxy)benzonitrile] | 100 to 500 nM |
| [2H]C([2H])(O)C([2H])([2H])Oc1ccc(Nc2ncc(F)c(N[C@@H]3C[C@@H]4CCCN4C(C)(C)C3)n2)cc1C#N [Compound 210, 5-((4-(((7R,8aS)-5,5-dimethyloctahydroindolizin-7-yl)amino)-5-fluoropyrimidin-2-yl)amino)-2-(2-hydroxyethoxy-1,1,2,2-d4)benzonitrile] | < 100 nM |
| Cn1nnn(-c2cc(Nc3ncc(F)c(N[C@@H]4C[C@@H]5CCCN5C(C)(C)C4)n3)c(F)cc2OC2CC(OCc3ccccc3)C2)c1=O (stereo partly drawn) [Compound 225, 1-(2-(3-(benzyloxy)cyclobutoxy)-5-((4-(((7R,8aS)-5,5-dimethyloctahydroindolizin-7-yl)amino)-5-fluoropyrimidin-2-yl)amino)-4-fluorophenyl)-4-methyl-1,4-dihydro-5H-tetrazol-5-one] | 100 to 500 nM |
| Cn1nnn(-c2cc(Nc3ncc(F)c(N[C@@H]4C[C@@H]5CCCN5C(C)(C)C4)n3)c(F)cc2OC2CC(O)C2)c1=O (stereo partly drawn) [Compound 227, 1-(5-((4-(((7R,8aS)-5,5-dimethyloctahydroindolizin-7-yl)amino)-5-fluoropyrimidin-2-yl)amino)-4-fluoro-2-(3-hydroxycyclobutoxy)phenyl)-4-methyl-1,4-dihydro-5H-tetrazol-5-one] | 100 to 500 nM |

same assay, conditions: T-cell, human primary T cells stimulated with αCD3 and αCD28, 24 hours

| SMILES | EC50 |
| --- | --- |
| CC1(C)C[C@H](N(CC(O)CO)c2nc(Nc3ccc(OCC(O)CO)c(C#N)c3)ncc2F)C[C@@H]2CCCN21 (some centres unmarked) [Compound 211] | 1000 to 10000 nM |
| [2H]C([2H])(O)C([2H])([2H])Oc1cc(F)c(Nc2ncc(F)c(N[C@@H]3C[C@@H]4CCCN4C(C)(C)C3)n2)cc1-n1nnn(C)c1=O [Compound 221, 1-(5-((4-(((7R,8aS)-5,5-dimethyloctahydroindolizin-7-yl)amino)-5-fluoropyrimidin-2-yl)amino)-4-fluoro-2-(2-hydroxyethoxy-1,1,2,2-d4)phenyl)-4-methyl-1,4-dihydro-5H-tetrazol-5-one] | < 100 nM |

same assay, conditions: human primary T cells stimulated with αCD3 and αCD28, 24 hours

| EC50 | SMILES |
| --- | --- |
| 100 to 500 nM | [2H]C([2H])(O)C([2H])([2H])Oc1ccc(Nc2ncc(F)c(N[C@@H]3C[C@@H]4CCCN4C(C)(C)C3)n2)cc1C#N [Compound 219, 5-((4-(((7R,8aS)-5,5-dimethyloctahydroindolizin-7-yl)amino)-5-fluoropyrimidin-2-yl)amino)-2-(2-hydroxyethoxy-1,1,2,2-d4)benzonitrile] |
| 100 to 500 nM | Cn1nnn(-c2cc(Nc3ncc(F)c(N[C@@H]4C[C@@H]5CCCN5C(C)(C)C4)n3)c(F)cc2OCCN)c1=O [Compound 228, 1-(2-(2-aminoethoxy)-5-((4-(((7R,8aS)-5,5-dimethyloctahydroindolizin-7-yl)amino)-5-fluoropyrimidin-2-yl)amino)-4-fluorophenyl)-4-methyl-1,4-dihydro-5H-tetrazol-5-one] |
| 500 to 1000 nM | Cn1nnn(-c2cc(Nc3ncc(F)c(N[C@@H]4C[C@@H]5CCCN5C(C)(C)C4)n3)c(F)cc2OCCN)c1=O [Compound 231, 1-(2-(2-aminoethoxy)-5-((4-(((7R,8aS)-5,5-dimethyloctahydroindolizin-7-yl)amino)-5-fluoropyrimidin-2-yl)amino)-4-fluorophenyl)-4-methyl-1,4-dihydro-5H-tetrazol-5-one] |
